Experimental data as given in the NIST ThermoML archive (doi:10.1016/j.tca.2012.01.013).

Key:
[1] = xn = mol fraction of the nth substance listed; conditions: 101 kPa, Liquid, Vibrating tube method
[2] = refractive index (Na D-line) (dimensionless); xn = mol fraction of the nth substance listed; conditions: 101 kPa, Liquid, Standard Abbe refractometry

COC(=O)CCCCC(=O)OC [dimethyl 1,6-hexanedioate] + CCC(C)=O
Conditions | mass density, [1] [kg/m3] | refractive index, [2]
288.15 K, x1 = 0.1002 | 855.132 | 1.3909
288.15 K, x1 = 0.2002 | 893.327 | 1.39827
288.15 K, x1 = 0.3002 | 926.063 | 1.40453
288.15 K, x1 = 0.4004 | 954.409 | 1.40995
288.15 K, x1 = 0.5001 | 979.016 | 1.41452
288.15 K, x1 = 0.5999 | 1000.72 | 1.41853
288.15 K, x1 = 0.6998 | 1020.03 | 1.42204
288.15 K, x1 = 0.7994 | 1037.28 | 1.42515
288.15 K, x1 = 0.8997 | 1052.86 | 1.42797
288.15 K, x1 = 1 | 1066.79 | 1.4305
293.15 K, x1 = 0.1002 | 849.982 | 1.38847
293.15 K, x1 = 0.2002 | 888.227 | 1.39586
293.15 K, x1 = 0.3002 | 921.006 | 1.40221
293.15 K, x1 = 0.4004 | 949.39 | 1.40768
293.15 K, x1 = 0.5001 | 974.03 | 1.41229
293.15 K, x1 = 0.5999 | 995.763 | 1.41634
293.15 K, x1 = 0.6998 | 1015.1 | 1.41989
293.15 K, x1 = 0.7994 | 1032.37 | 1.42303
293.15 K, x1 = 0.8997 | 1047.98 | 1.42587
293.15 K, x1 = 1 | 1061.93 | 1.42842
298.15 K, x1 = 0.1002 | 844.812 | 1.38601
298.15 K, x1 = 0.2002 | 883.111 | 1.39346
298.15 K, x1 = 0.3002 | 915.937 | 1.39988
298.15 K, x1 = 0.4004 | 944.361 | 1.4054
298.15 K, x1 = 0.5001 | 969.035 | 1.41005
298.15 K, x1 = 0.5999 | 990.798 | 1.41416
298.15 K, x1 = 0.6998 | 1010.17 | 1.41774
298.15 K, x1 = 0.7994 | 1027.45 | 1.42091
298.15 K, x1 = 0.8997 | 1043.08 | 1.42378
298.15 K, x1 = 1 | 1057.06 | 1.42636
303.15 K, x1 = 0.1002 | 839.62 | 1.38348
303.15 K, x1 = 0.2002 | 877.976 | 1.39104
303.15 K, x1 = 0.3002 | 910.852 | 1.39751
303.15 K, x1 = 0.4004 | 939.32 | 1.4031
303.15 K, x1 = 0.5001 | 964.032 | 1.4078
303.15 K, x1 = 0.5999 | 985.828 | 1.41196
303.15 K, x1 = 0.6998 | 1005.23 | 1.41557
303.15 K, x1 = 0.7994 | 1022.54 | 1.41878
303.15 K, x1 = 0.8997 | 1038.19 | 1.42168
303.15 K, x1 = 1 | 1052.18 | 1.42429
308.15 K, x1 = 0.1002 | 834.401 | 1.38097
308.15 K, x1 = 0.2002 | 872.82 | 1.38859
308.15 K, x1 = 0.3002 | 905.75 | 1.39515
308.15 K, x1 = 0.4004 | 934.263 | 1.40079
308.15 K, x1 = 0.5001 | 959.015 | 1.40555
308.15 K, x1 = 0.5999 | 980.845 | 1.40974
308.15 K, x1 = 0.6998 | 1000.27 | 1.41341
308.15 K, x1 = 0.7994 | 1017.61 | 1.41667
308.15 K, x1 = 0.8997 | 1033.29 | 1.41961
308.15 K, x1 = 1 | 1047.31 | 1.42222
313.15 K, x1 = 0.1002 | 829.151 | 1.37832
313.15 K, x1 = 0.2002 | 867.64 | 1.38611
313.15 K, x1 = 0.3002 | 900.629 | 1.39277
313.15 K, x1 = 0.4004 | 929.193 | 1.39848
313.15 K, x1 = 0.5001 | 953.987 | 1.4033
313.15 K, x1 = 0.5999 | 975.853 | 1.40756
313.15 K, x1 = 0.6998 | 995.312 | 1.41126
313.15 K, x1 = 0.7994 | 1012.68 | 1.41455
313.15 K, x1 = 0.8997 | 1028.38 | 1.41751
313.15 K, x1 = 1 | 1042.43 | 1.42017
318.15 K, x1 = 0.1002 | 823.875 | 1.37568
318.15 K, x1 = 0.2002 | 862.438 | 1.38355
318.15 K, x1 = 0.3002 | 895.489 | 1.39031
318.15 K, x1 = 0.4004 | 924.104 | 1.39611
318.15 K, x1 = 0.5001 | 948.941 | 1.401
318.15 K, x1 = 0.5999 | 970.845 | 1.40532
318.15 K, x1 = 0.6998 | 990.336 | 1.40909
318.15 K, x1 = 0.7994 | 1007.74 | 1.41243
318.15 K, x1 = 0.8997 | 1023.47 | 1.41544
318.15 K, x1 = 1 | 1037.54 | 1.41819
323.15 K, x1 = 0.1002 | 818.564 | 1.37305
323.15 K, x1 = 0.2002 | 857.21 | 1.38103
323.15 K, x1 = 0.3002 | 890.33 | 1.38784
323.15 K, x1 = 0.4004 | 919.003 | 1.39374
323.15 K, x1 = 0.5001 | 943.887 | 1.39869
323.15 K, x1 = 0.5999 | 965.832 | 1.40307
323.15 K, x1 = 0.6998 | 985.36 | 1.40691
323.15 K, x1 = 0.7994 | 1002.79 | 1.4103
323.15 K, x1 = 0.8997 | 1018.55 | 1.41336
323.15 K, x1 = 1 | 1032.64 | 1.41614

COC(=O)c1ccccc1C(=O)OC [dimethyl 1,2-benzenedicarboxylate] + CCCCO
Conditions | mass density, [1] [kg/m3] | refractive index, [2]
288.15 K, x1 = 0.0997 | 877.193 | 1.42114
288.15 K, x1 = 0.1998 | 932.375 | 1.43796
288.15 K, x1 = 0.2994 | 980.153 | 1.45268
288.15 K, x1 = 0.3999 | 1022.54 | 1.4657
288.15 K, x1 = 0.5 | 1059.92 | 1.47709
288.15 K, x1 = 0.5985 | 1092.78 | 1.48663
288.15 K, x1 = 0.7001 | 1123.06 | 1.49584
288.15 K, x1 = 0.8016 | 1150.29 | 1.50398
288.15 K, x1 = 0.9002 | 1174.24 | 1.51118
288.15 K, x1 = 1 | 1196.26 | 1.51779
293.15 K, x1 = 0.0997 | 873.146 | 1.41907
293.15 K, x1 = 0.1998 | 928.143 | 1.43584
293.15 K, x1 = 0.2994 | 975.792 | 1.45052
293.15 K, x1 = 0.3999 | 1018.08 | 1.46353
293.15 K, x1 = 0.5 | 1055.37 | 1.47491
293.15 K, x1 = 0.5985 | 1088.17 | 1.48446
293.15 K, x1 = 0.7001 | 1118.42 | 1.49365
293.15 K, x1 = 0.8016 | 1145.63 | 1.50183
293.15 K, x1 = 0.9002 | 1169.57 | 1.50903
293.15 K, x1 = 1 | 1191.59 | 1.51565
298.15 K, x1 = 0.0997 | 869.077 | 1.41699
298.15 K, x1 = 0.1998 | 923.892 | 1.43374
298.15 K, x1 = 0.2994 | 971.414 | 1.44835
298.15 K, x1 = 0.3999 | 1013.6 | 1.46136
298.15 K, x1 = 0.5 | 1050.83 | 1.47274
298.15 K, x1 = 0.5985 | 1083.57 | 1.48227
298.15 K, x1 = 0.7001 | 1113.78 | 1.49148
298.15 K, x1 = 0.8016 | 1140.96 | 1.49966
298.15 K, x1 = 0.9002 | 1164.91 | 1.50689
298.15 K, x1 = 1 | 1186.93 | 1.51354
303.15 K, x1 = 0.0997 | 864.981 | 1.41489
303.15 K, x1 = 0.1998 | 919.619 | 1.43158
303.15 K, x1 = 0.2994 | 967.016 | 1.44618
303.15 K, x1 = 0.3999 | 1009.11 | 1.45918
303.15 K, x1 = 0.5 | 1046.26 | 1.47057
303.15 K, x1 = 0.5985 | 1078.96 | 1.4801
303.15 K, x1 = 0.7001 | 1109.14 | 1.48929
303.15 K, x1 = 0.8016 | 1136.31 | 1.49753
303.15 K, x1 = 0.9002 | 1160.25 | 1.50474
303.15 K, x1 = 1 | 1182.28 | 1.51146
308.15 K, x1 = 0.0997 | 860.864 | 1.41266
308.15 K, x1 = 0.1998 | 915.319 | 1.42932
308.15 K, x1 = 0.2994 | 962.593 | 1.44399
308.15 K, x1 = 0.3999 | 1004.6 | 1.45694
308.15 K, x1 = 0.5 | 1041.69 | 1.46834
308.15 K, x1 = 0.5985 | 1074.34 | 1.47795
308.15 K, x1 = 0.7001 | 1104.49 | 1.4871
308.15 K, x1 = 0.8016 | 1131.65 | 1.49537
308.15 K, x1 = 0.9002 | 1155.59 | 1.50263
308.15 K, x1 = 1 | 1177.62 | 1.50943
313.15 K, x1 = 0.0997 | 856.701 | 1.41048
313.15 K, x1 = 0.1998 | 910.989 | 1.42712
313.15 K, x1 = 0.2994 | 958.146 | 1.4417
313.15 K, x1 = 0.3999 | 1000.06 | 1.45469
313.15 K, x1 = 0.5 | 1037.11 | 1.4662
313.15 K, x1 = 0.5985 | 1069.7 | 1.47585
313.15 K, x1 = 0.7001 | 1099.84 | 1.48507
313.15 K, x1 = 0.8016 | 1126.98 | 1.4933
313.15 K, x1 = 0.9002 | 1150.93 | 1.50061
313.15 K, x1 = 1 | 1172.97 | 1.50736
318.15 K, x1 = 0.0997 | 852.519 | 1.40835
318.15 K, x1 = 0.1998 | 906.628 | 1.42501
318.15 K, x1 = 0.2994 | 953.674 | 1.43965
318.15 K, x1 = 0.3999 | 995.51 | 1.45257
318.15 K, x1 = 0.5 | 1032.5 | 1.46395
318.15 K, x1 = 0.5985 | 1065.06 | 1.47376
318.15 K, x1 = 0.7001 | 1095.18 | 1.48299
318.15 K, x1 = 0.8016 | 1122.32 | 1.49121
318.15 K, x1 = 0.9002 | 1146.27 | 1.49853
318.15 K, x1 = 1 | 1168.32 | 1.50524
323.15 K, x1 = 0.0997 | 848.279 | 1.40609
323.15 K, x1 = 0.1998 | 902.232 | 1.42274
323.15 K, x1 = 0.2994 | 949.172 | 1.4375
323.15 K, x1 = 0.3999 | 990.935 | 1.45024
323.15 K, x1 = 0.5 | 1027.87 | 1.46165
323.15 K, x1 = 0.5985 | 1060.4 | 1.47156
323.15 K, x1 = 0.7001 | 1090.51 | 1.48083
323.15 K, x1 = 0.8016 | 1117.65 | 1.48906
323.15 K, x1 = 0.9002 | 1141.61 | 1.4964
323.15 K, x1 = 1 | 1163.67 | 1.5032
